The record followed here is ChEMBL document CHEMBL1137230, “Structure-based exploration of cyclic dipeptide chitinase inhibitors” (2004).

The subject of assay [1] is Saccharomyces cerevisiae. Nature of the assay: Cell aggregates after incubation of compound with Saccharomyces cerevisiae strains as measure of chitinase inhibitory activity. In kind it is functional.
Assay [2] concerns Saccharomyces cerevisiae. Kind of assay: Cell aggregates after mild sonication of compound with Saccharomyces cerevisiae strains as measure of chitinase inhibitory activity. The class given is functional.

For `O=C1N[C@@H](Cc2cnc[nH]2)C(=O)N2CCC[C@@H]12`, the Cell aggregates in the assay with Saccharomyces cerevisiae [1] was determined as 90; in the assay on Saccharomyces cerevisiae [2] it was 32.7.
For `O=C1N[C@@H](Cc2ccc(O)cc2)C(=O)N2CCC[C@@H]12`, in that order: 77.5 and 33.9.
For `O=C1NCC(=O)N2CCC[C@@H]12` [CYCLO(PROLYLGLYCYL)], the results for the Cell aggregates with Saccharomyces cerevisiae [1] and with Saccharomyces cerevisiae [2] were 75.7 and 33.2, respectively.
